Measurements from ChEMBL document CHEMBL1132706 (J Med Chem, 1999).

Tests used:
[1] = molecular target: T1, Human immunodeficiency virus type 1 integrase (Human immunodeficiency virus 1, UniProt Q7ZJM1)
Description: Inhibition of HIV-1 integrase by radiolabeled oligonucleotide-based assay integration

[2] = molecular target: T1, Human immunodeficiency virus type 1 integrase; remark: listed apart in the source
Description: Compound was evaluated for the inhibitory concentration against HIV-1 integrase by radiolabeled oligonucleotide-based assay 3''-processing

CEM-SS [3] = test: Compound was evaluated for the cytoprotection of CEM-SS cells by XTT cytoprotection assay through the NCI AIDS Screen; Not reached due to cytotoxicity; type: functional, cell-based, Homo sapiens
CEM-SS [4] = test: Compound was evaluated for the cytoprotection fo CEM-SS cells by XTT cytoprotection assay through the NCI AIDS Screen; type: functional, cell-based; details: Homo sapiens
CEM-SS [5] = test: Compound was evaluated for the cytoprotection of CEM-SS cells by XTT cytoprotection assay through the NCI AIDS Screen; type: functional, cell-based; details: Homo sapiens
CEM-SS [6] = test: Compound was evaluated for the effect of Order of Addition on Cytoprotection at dilution 333, Add at infection; type: functional, Homo sapiens
CEM-SS [7] = test: Compound was evaluated for the effect of Order of Addition on Cytoprotection against HIV-1RF at dilution 100, Add at infection; type: functional, Homo sapiens
CEM-SS [8] = test: Compound was evaluated for the effect of Order of Addition on Cytoprotection against HIV-1RF at dilution 100, Pretreat and add 1 uM; type: functional, Homo sapiens
CEM-SS [9] = test: Compound was evaluated for the effect of Order of Addition on Cytoprotection against HIV-1RF at dilution 100, Pretreat and add 10 uM; type: functional, Homo sapiens
CEM-SS [10] = test: Compound was evaluated for the effect of Order of Addition on Cytoprotection against HIV-1RF at dilution 100, Pretreat with 100 uM; type: functional, Homo sapiens
CEM-SS [11] = test: Compound was evaluated for the effect of Order of Addition on Cytoprotection against HIV-1RF at dilution 1000, Add at infection; type: functional, Homo sapiens
CEM-SS [12] = test: Compound was evaluated for the effect of Order of Addition on Cytoprotection against HIV-1RF at dilution 1000, Pretreat and add 1 uM; type: functional, Homo sapiens
CEM-SS [13] = test: Compound was evaluated for the effect of Order of Addition on Cytoprotection against HIV-1RF at dilution 1000, Pretreat and add 10 uM; type: functional, Homo sapiens
CEM-SS [14] = test: Compound was evaluated for the effect of Order of Addition on Cytoprotection against HIV-1RF at dilution 1000, Pretreat with 100 uM; type: functional, Homo sapiens
CEM-SS [15] = test: Compound was evaluated for the effect of Order of Addition on Cytoprotection against HIV-1RF at dilution 333, Pretreat and add 10 uM; type: functional, Homo sapiens
CEM-SS [16] = test: Compound was evaluated for the effect of Order of Addition on Cytoprotection against HIV-1RF at dilution 333, Pretreat with 100 uM; type: functional, Homo sapiens
CEM-SS [17] = test: Compound was evaluated for the effect of Order of Addition on Cytoprotection against HIV-1RF at dilution 333,Pretreat and add 1 uM; type: functional, Homo sapiens
CEM-SS [18] = test: Compound was evaluated for the effect of Order of Addition on Cytoprotection against HIV-1RF at dilution 333, Add at infection; type: functional, Homo sapiens
MT4 [19] = test: Concentration of compound required to protect 50% of MT-4 cells against retroviral cytopathic effects by HIV-1 ([…]); type: functional, cell-based; details: Homo sapiens
MT4 [20] = test: Concentration of compound required to reduce MT-4 cell viability by 50%; type: functional, cell-based; details: Homo sapiens

T1 sequence (Q7ZJM1 whole entry): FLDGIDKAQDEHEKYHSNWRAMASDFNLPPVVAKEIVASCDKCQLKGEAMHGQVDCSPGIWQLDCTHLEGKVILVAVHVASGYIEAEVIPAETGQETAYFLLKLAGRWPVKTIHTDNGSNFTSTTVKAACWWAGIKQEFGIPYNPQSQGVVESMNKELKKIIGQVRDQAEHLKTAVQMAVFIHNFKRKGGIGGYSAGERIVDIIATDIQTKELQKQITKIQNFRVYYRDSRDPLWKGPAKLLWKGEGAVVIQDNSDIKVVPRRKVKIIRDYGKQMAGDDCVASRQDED

IC50 [1] [µM]	IC50 [2] [µM]	Compound	IC50 (CEM-SS [5]) [µM]	other results
3.8	2.8	COC(=O)[C@H](COC(=O)/C=C/c1ccc(OC(C)=O)c(OC(C)=O)c1)NC(=O)/C=C/c1ccc(OC(C)=O)c(OC(C)=O)c1		
7.5	27.5	O=C(/C=C/c1ccc(O)c(O)c1)OCCCOC(=O)/C=C/c1ccc(O)c(O)c1		EC50 (CEM-SS [3]): Not reached; IC50 (CEM-SS [4]): 13.9 µM
6.5	> 27.5	O=C(/C=C/c1ccc(O)c(O)c1)NCCOC(=O)/C=C/c1ccc(O)c(O)c1	9.22	
> 333	> 333	CC(=O)Oc1ccc(/C=C/C(=O)OCCCOC(=O)/C=C/c2ccc(OC(C)=O)c(OC(C)=O)c2)cc1OC(C)=O		
> 333	> 333	CC(=O)Oc1ccc(/C=C/C(=O)O[C@@H](C)[C@H](C)OC(=O)/C=C/c2ccc(OC(C)=O)c(OC(C)=O)c2)cc1OC(C)=O	5.71	
> 333	> 333	CC(=O)Oc1ccc(/C=C/C(=O)O[C@H]2CCCC[C@@H]2OC(=O)/C=C/c2ccc(OC(C)=O)c(OC(C)=O)c2)cc1OC(C)=O	5.76	
7.6	> 24.8	O=C(/C=C/c1ccc(O)c(O)c1)O[C@H]1CCCC[C@@H]1OC(=O)/C=C/c1ccc(O)c(O)c1	5.67	EC50 (CEM-SS [3]): Not reached
7.8	> 38.4	C[C@H](OC(=O)/C=C/c1ccc(O)c(O)c1)[C@H](C)OC(=O)/C=C/c1ccc(O)c(O)c1	3.64	EC50 (CEM-SS [3]): Not reached
10.1	10.1	COC(=O)C(COC(=O)/C=C/c1ccc(OC(C)=O)c(OC(C)=O)c1)OC(=O)/C=C/c1ccc(OC(C)=O)c(OC(C)=O)c1 (stereo unspecified)		
3.2	2.8	COC(=O)[C@@H](COC(=O)/C=C/c1ccc(OC(C)=O)c(OC(C)=O)c1)NC(=O)/C=C/c1ccc(OC(C)=O)c(OC(C)=O)c1		
1.7	3.3	O=C(/C=C/c1ccc(O)c(O)c1)NC(COC(=O)/C=C/c1ccc(O)c(O)c1)C(=O)O (stereo unspecified)		
		O=C(/C=C/c1ccc(O)c(O)c1)O[C@H](C(=O)O)[C@H](OC(=O)/C=C/c1ccc(O)c(O)c1)C(=O)O [CHICORIC ACID]		Control (CEM-SS [6]): 73%; Control (CEM-SS [7]): 141%; Control (CEM-SS [8]): 56%; Control (CEM-SS [9]): 114%; Control (CEM-SS [10]): 108%; Control (CEM-SS [11]): 60%; Control (CEM-SS [12]): 50%; Control (CEM-SS [13]): 135%; Control (CEM-SS [14]): 168%; Control (CEM-SS [15]): 82%; Control (CEM-SS [16]): 59%; Control (CEM-SS [17]): 92%
		Cc1cn([C@H]2C[C@H](N=[N+]=[N-])[C@@H](CO)O2)c(=O)[nH]c1=O [ZIDOVUDINE]		Control (CEM-SS [7]): 35%; Control (CEM-SS [10]): 114%; Control (CEM-SS [11]): 5%; Control (CEM-SS [14]): 121%; Control (CEM-SS [18]): 3%; Control (CEM-SS [16]): 119%; EC50 (MT4 [19]): 0.005 µM; IC50 (MT4 [20]): 100 µM
